According to ChEMBL document CHEMBL1201862, “PubChem BioAssay data set” (2004):
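Dose response: 5 concentrations. Exposure: 48 h. Format: 96-well plates. Endpoint: linear interpolation; highest concentration if not reached. Here, GI50 denotes the concentration required for 50% inhibition of growth.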 Calls of active or inactive are those of the source. Rule as the data show it: active = GI50 up to about 1.1 µM and inactive = higher.

Columns and labels:
Assay in all cases: NCI anticancer screen, dose series, 48 h
786-0 = tested on: 786-0
OVCAR-4 = tested on: OVCAR-4
CCRF-CEM = tested on: CCRF-CEM
SN12C = tested on: SN12C
MDA-MB-231 = tested on: MDA-MB-231
DU-145 = tested on: DU-145
A498 = tested on: A498
NCI/ADR-RES = tested on: NCI/ADR-RES
A549 = tested on: A549
SK-OV-3 = tested on: SK-OV-3
K562 = tested on: K562
SF-539 = tested on: SF-539
SF-268 = tested on: SF-268
SNB-19 = tested on: SNB-19
HL-60 = tested on: HL-60
U-251 = tested on: U-251
T47D = tested on: T47D
PC-3 = tested on: PC-3
OVCAR-3 = tested on: OVCAR-3
UACC-62 = tested on: UACC-62
SNB-75 = tested on: SNB-75
Malme-3M = tested on: Malme-3M
EKVX = tested on: EKVX
Hs-578T = tested on: Hs-578T
MOLT-4 = tested on: MOLT-4
HOP-92 = tested on: HOP-92
HOP-62 = tested on: HOP-62
BT-549 = tested on: BT-549
SW-620 = tested on: SW-620
NCI-H522 = tested on: NCI-H522
ACHN = tested on: ACHN
NCI-H460 = tested on: NCI-H460
SR = tested on: SR
OVCAR-8 = tested on: OVCAR-8
M14 = tested on: M14
OVCAR-5 = tested on: OVCAR-5
NCI-H226 = tested on: NCI-H226
SK-MEL-28 = tested on: SK-MEL-28
LOX IMVI = tested on: LOX IMVI
SK-MEL-5 = tested on: SK-MEL-5
KM12 = tested on: KM12
MDA-MB-435 = tested on: MDA-MB-435
HT-29 = tested on: HT-29
HCT-116 = tested on: HCT-116
MDA-N = tested on: MDA-N
RPMI-8226 = tested on: RPMI-8226
CAKI-1 = tested on: CAKI-1
SF-295 = tested on: SF-295
SK-MEL-2 = tested on: SK-MEL-2
IGROV-1 = tested on: IGROV-1
UO-31 = tested on: UO-31
UACC-257 = tested on: UACC-257
COLO 205 = tested on: COLO 205
MCF7 = tested on: MCF7
HCC 2998 = tested on: HCC 2998
NCI-H23 = tested on: NCI-H23
HCT-15 = tested on: HCT-15
TK-10 = tested on: TK-10

How did the GI50 (786-0) turn out when Cc1cccc(/C=N/NC(=S)NCCc2ccccn2)n1 was run?
Its GI50 is 23.3 µM (inactive).

What about the GI50 (OVCAR-4) of the same compound?
Its GI50 is 42.2 µM (inactive).

What about the GI50 (CCRF-CEM) of the same compound?
Its GI50 is 9.89 µM (inactive).

What about the GI50 (SN12C) of the same compound?
The GI50 was 29.9 µM (inactive).

What about the GI50 (MDA-MB-231) of the same compound?
Its GI50 is 39 µM (inactive).

And the GI50 (DU-145)?
The GI50 was 22.3 µM (inactive).

And the GI50 (A498)?
Its GI50 is 34 µM (inactive).

What about the GI50 (NCI/ADR-RES) of the same compound?
The GI50 was 31.8 µM (inactive).

And the GI50 (A549)?
Its GI50 is 36.6 µM (inactive).

What about the GI50 (SK-OV-3) of the same compound?
Its GI50 is 14.1 µM (inactive).

And the GI50 (K562)?
Its GI50 is 30.8 µM (inactive).

What about the GI50 (SF-539) of the same compound?
The GI50 was 26.7 µM (inactive).

And the GI50 (SF-268)?
The GI50 was 19.6 µM (inactive).

And the GI50 (SNB-19)?
Its GI50 is 37.1 µM (inactive).

What about the GI50 (HL-60) of the same compound?
The GI50 was 15.6 µM (inactive).

And the GI50 (U-251)?
The GI50 was 20.4 µM (inactive).

What about the GI50 (T47D) of the same compound?
The GI50 was 37.8 µM (inactive).

And the GI50 (PC-3)?
Its GI50 is 35.2 µM (inactive).

What about the GI50 (OVCAR-3) of the same compound?
The GI50 was 48 µM (inactive).

What about the GI50 (UACC-62) of the same compound?
The GI50 was 22.5 µM (inactive).

And the GI50 (SNB-75)?
Its GI50 is 20.3 µM (inactive).

What about the GI50 (Malme-3M) of the same compound?
Its GI50 is 47.6 µM (inactive).

What about the GI50 (EKVX) of the same compound?
Its GI50 is 38.2 µM (inactive).

And the GI50 (Hs-578T)?
The GI50 was 53.5 µM (inactive).

And the GI50 (MOLT-4)?
The GI50 was 18.9 µM (inactive).

What about the GI50 (HOP-92) of the same compound?
Its GI50 is 22.3 µM (inactive).

What about the GI50 (HOP-62) of the same compound?
Its GI50 is 18 µM (inactive).

What about the GI50 (BT-549) of the same compound?
The GI50 was 35.2 µM (inactive).

What about the GI50 (SW-620) of the same compound?
Its GI50 is 42.5 µM (inactive).

And the GI50 (NCI-H522)?
Its GI50 is 34.8 µM (inactive).

What about the GI50 (ACHN) of the same compound?
Its GI50 is 13.3 µM (inactive).

What about the GI50 (NCI-H460) of the same compound?
The GI50 was 14.9 µM (inactive).

And the GI50 (SR)?
Its GI50 is 28.4 µM (inactive).

What about the GI50 (OVCAR-8) of the same compound?
The GI50 was 27.9 µM (inactive).

What about the GI50 (M14) of the same compound?
Its GI50 is 16.7 µM (inactive).

What about the GI50 (OVCAR-5) of the same compound?
Its GI50 is 46.7 µM (inactive).

And the GI50 (NCI-H226)?
The GI50 was 16.1 µM (inactive).

And the GI50 (SK-MEL-28)?
The GI50 was 56.1 µM (inactive).

And the GI50 (LOX IMVI)?
The GI50 was 18.3 µM (inactive).

And the GI50 (SK-MEL-5)?
The GI50 was 26.1 µM (inactive).

What about the GI50 (KM12) of the same compound?
The GI50 was 36.4 µM (inactive).

What about the GI50 (MDA-MB-435) of the same compound?
The GI50 was 27.4 µM (inactive).

What about the GI50 (HT-29) of the same compound?
The GI50 was 27.9 µM (inactive).

What about the GI50 (HCT-116) of the same compound?
The GI50 was 31.8 µM (inactive).

What about the GI50 (MDA-N) of the same compound?
Its GI50 is 60.8 µM (inactive).

What about the GI50 (RPMI-8226) of the same compound?
The GI50 was > 53.2 µM (inactive).

What about the GI50 (CAKI-1) of the same compound?
The GI50 was 26.7 µM (inactive).

What about the GI50 (SF-295) of the same compound?
The GI50 was 24.6 µM (inactive).

What about the GI50 (SK-MEL-2) of the same compound?
Its GI50 is 31.2 µM (inactive).

What about the GI50 (IGROV-1) of the same compound?
The GI50 was 20.1 µM (inactive).

What about the GI50 (UO-31) of the same compound?
Its GI50 is 16.9 µM (inactive).

And the GI50 (UACC-257)?
The GI50 was 33.8 µM (inactive).

What about the GI50 (COLO 205) of the same compound?
The GI50 was 31.4 µM (inactive).

What about the GI50 (MCF7) of the same compound?
Its GI50 is 37.2 µM (inactive).

And the GI50 (HCC 2998)?
Its GI50 is 42.2 µM (inactive).

And the GI50 (NCI-H23)?
Its GI50 is 26.6 µM (inactive).

And the GI50 (HCT-15)?
The GI50 was 26.5 µM.

What about the GI50 (TK-10) of the same compound?
Its GI50 is 71.4 µM (inactive).

Which results are given for O=C(CCN1CCCC1)Nc1ccc2sc3ccccc3c(=O)c2n1?
GI50 (786-0): 11.7 µM (inactive); GI50 (OVCAR-4): 13.2 µM (inactive); GI50 (CCRF-CEM): 10.2 µM (inactive); GI50 (SN12C): 10.1 µM (inactive); GI50 (MDA-MB-231): 13.3 µM (inactive); GI50 (DU-145): 15.4 µM (inactive); GI50 (A498): 17.8 µM (inactive); GI50 (NCI/ADR-RES): 13.3 µM (inactive); GI50 (A549): 12.3 µM (inactive); GI50 (SK-OV-3): 7.23 µM (inactive); GI50 (K562): 13.8 µM (inactive); GI50 (SF-539): 12.6 µM (inactive); GI50 (SF-268): 17.2 µM (inactive); GI50 (SNB-19): 13.1 µM (inactive); GI50 (HL-60): 10.3 µM (inactive); GI50 (U-251): 12.9 µM (inactive); GI50 (T47D): 19.2 µM (inactive); GI50 (PC-3): 13.5 µM (inactive); GI50 (OVCAR-3): 14.5 µM (inactive); GI50 (UACC-62): 12.6 µM (inactive); GI50 (SNB-75): 11.8 µM (inactive); GI50 (Malme-3M): 13.1 µM (inactive); GI50 (EKVX): 12.4 µM (inactive); GI50 (Hs-578T): 11.8 µM (inactive); GI50 (MOLT-4): 4.72 µM (inactive); GI50 (HOP-92): 18.1 µM (inactive); GI50 (HOP-62): 12.3 µM (inactive); GI50 (BT-549): 13.6 µM (inactive); GI50 (SW-620): 12.4 µM (inactive); GI50 (NCI-H522): 10.5 µM (inactive); GI50 (ACHN): 11.5 µM (inactive); GI50 (NCI-H460): > 10 µM (inactive); GI50 (SR): 8.89 µM (inactive); GI50 (OVCAR-8): 11.4 µM (inactive); GI50 (M14): 13.2 µM (inactive); GI50 (OVCAR-5): 12.9 µM (inactive); GI50 (NCI-H226): 13.8 µM (inactive); GI50 (SK-MEL-28): 14.3 µM (inactive); GI50 (LOX IMVI): > 10 µM (inactive); GI50 (SK-MEL-5): 11.8 µM (inactive); GI50 (KM12): 12.8 µM (inactive); GI50 (MDA-MB-435): 12.7 µM (inactive); GI50 (HT-29): 4.35 µM (inactive); GI50 (HCT-116): 11.5 µM (inactive); GI50 (MDA-N): 13.4 µM (inactive); GI50 (RPMI-8226): 12 µM (inactive); GI50 (CAKI-1): 11.5 µM (inactive); GI50 (SF-295): 14.8 µM (inactive); GI50 (SK-MEL-2): 13.3 µM (inactive); GI50 (IGROV-1): 15.2 µM (inactive); GI50 (UO-31): 11.7 µM (inactive); GI50 (UACC-257): 12.2 µM (inactive); GI50 (COLO 205): 11.1 µM (inactive); GI50 (MCF7): 13 µM (inactive); GI50 (HCC 2998): 12.3 µM (inactive); GI50 (NCI-H23): 13.1 µM (inactive); GI50 (HCT-15): 11.5 µM; GI50 (TK-10): > 10 µM (inactive)
